# Reference: publication PMC8388802, “Study on the Structure-Activity Relationship of an Antimicrobial Peptide, Brevinin-2GUb, from the Skin Secretion of Hylarana guentheri” (Antibiotics, 2021)
# Where a SMILES comes first, the peptide text is derived from it.
# How the values were obtained:
# [1] = tested on: E. coli (ATCC BAA-2340); type: cell-based, Escherichia coli
# Description: (§1) The method of antimicrobial assay is based on the Methods for Dilution Antimicrobial Susceptibility Tests for Bacteria that Grow Aerobically from the Clinical and Laboratory Standards Institute (CLSI).The antimicrobial activities of peptides were evaluated against Gram-positive bacteria S. aureus (ATCC 6538), MRSA (NCTC 12493), E. faecalis (NCTC 12493), Gram-negative bacteria E. coli (ATCC CRM 8739), K. pneumoniae (ATCC 43816), P. aeruginosa (ATCC CRM 9027), yeast C. albicans (ATCC CRM 10231) and clinical isolates MRSA (B042 V2E1 A), E. coli (ATCC BAA-2340), K. pneumoniae (ATCC BAA-1705), P. aeruginosa (B004 V2S2 B).
# (§2) At the first stage of the assay, 20 μL bacteria were cultured in 100 mL Mueller Hinton Broth (MHB) or Yeast Extract–Peptone–Dextrose broth (YPD-B), respectively, and was incubated overnight. Then, microorganisms were subcultured in 20 mL fresh MHB or YPD-B to achieve cultures in the logarithmic phase (1 × 10^8 CFU/mL), which can be verified by optical density (OD) (The OD of Gram-positive bacteria is 0.23, OD of Gram-negative bacteria is 0.4, and OD of yeast is 0.15), and viable cell counts. Then, the medium was used to dilute the cultures to specific cell densities (Gram-negative and Gram-positive bacteria: 5 × 10^5 CFU/mL; yeast: 1 × 10^6 CFU/mL), which were the final concentrations of bacterial suspensions used in the assay. The peptides were dissolved in DMSO to reach a final concentration of 512 µM. A series of two-fold dilutions ranging from 512 µM to 1 µM were dosed in the 96-well plates.
# (§3) Antimicrobial assays were conducted in 96-well plates, which were divided into five groups, including a negative control group (PBS), a positive control group (20 μg/mL norfloxacin for bacteria and 10 μg/mL amphotericin B for yeast), vehicle control (1% DMSO), blank control (MHB or YPD-B), and a peptide group. Each microorganism had five repetitions, and each well contained 1 µL corresponding solution and 99 µL culture. After incubation at 37 °C overnight, the absorbance of each well was tested by a microplate reader (EL808, Biolise BioTek Winooski, Minneapolis, USA) under a 550 nm wavelength. The MIC is the lowest concentration at which no bacterial growth can be observed.
# (§4) The next day, 10 µL of every clear well was taken out to be cultured on a Mueller Hinton Agar (MHA) plate and incubated at 37 °C for 16–20 h. The MBC is the lowest concentration without any bacterial colonies, which means at this concentration, the peptide reduces the viability of the pathogen by more than 99.9%.
# [2] = tested on: MRSA (NCTC 12493); type: cell-based, Methicillin-resistant Staphylococcus aureus
# Description: as §1, §2, §3, §4
# [3] = tested on: MRSA (B042 V2E1 A); type: cell-based, Methicillin-resistant Staphylococcus aureus
# Description: as §1, §2, §3, §4
# [4] = tested on: S. aureus (ATCC 6538); type: cell-based, Staphylococcus aureus
# Description: as §1, §2, §3, §4
# [5] = tested on: E. faecalis (NCTC 12493) biofilm; type: cell-based, Enterococcus faecalis; details: NCTC 12493, 24 h
# Description: (§5) The anti-biofilm activities of the peptides against S. aureus (ATCC 6538), MRSA (NCTC 12493), E. faecalis (NCTC 12493), E. coli (ATCC CRM 8739), K. pneumoniae (ATCC 43816), and P. aeruginosa (ATCC CRM 9027) were evaluated.
# (§6) The bacteria were inoculated in a different medium (Gram-positive bacteria were in TSB and Gram-negative bacteria were in LB) overnight, and the subculture was conducted in the same medium. When the bacteria reached a specific density, 100 µL of the dilution was added to each well of the 96-well microplate. Then 1 µL of peptide at a series of concentrations, the same concentration in the antimicrobial assay, were added into the well together with the bacteria. The plates were put into a moist shaking incubator with a speed of 200 rpm, and the temperature was set at 37 ℃. After a 24-h incubation, the liquid in the wells was aspirated, and each was washed twice by 100 µL PBS. One hundred µL of methanol were added into each well to stabilise the biofilm. After air-drying, 100 µL crystal violet was used to dye the biofilm, and they were dissolved in the 100 µL glacial acidic acid after drying. The solutions were transferred to a new microplate, and the absorbance of each well was tested by a microplate reader (EL808, Biolise BioTek Winooski, Minneapolis, MN, USA) at 595 nm wavelength. MBIC was the minimum concentration of the peptide showing no biofilm formation.
# The bacteria were inoculated in a different medium (Gram-positive bacteria were in TSB and Gram-negative bacteria were in LB) overnight, and the subculture was conducted in the same medium. When the bacteria reached a specific density, 100 µL of the dilution was added to each well of the 96-well microplates. The plates were put into a moist shaking incubator with a speed of 200 rpm and the temperature was 37 ℃. After a 24 h incubation, the liquid in the wells was aspirated and they were washed twice by 100 µL PBS of each well. The peptides with the same concentrations were diluted in the corresponding medium and 100 µL were added into each well. After a 24-h incubation, the liquid in the wells was aspirated and they were washed twice by 100 µL PBS. One hundred µL of methanol were added into the wells to stabilise the biofilms. After being air-dried, 100 µL crystal violet was used to dye the biofilm, and they were dissolved in the 100 µL glacial acidic acid after drying. The solutions were transferred to a new microplate, and the absorbance of each well was tested by a microplate reader (EL808, Biolise BioTek Winooski, Minneapolis, USA) at 595 nm wavelength.
# [6] = tested on: C. albicans (ATCC CRM 10231); type: cell-based, Candida albicans
# Description: as §1, §2, §3, §4
# [7] = tested on: E. faecalis (NCTC 12493); type: cell-based, Enterococcus faecalis
# Description: as §1, §2, §3, §4
# [8] = tested on: MRSA (NCTC 12493) biofilm; type: cell-based, Methicillin-resistant Staphylococcus aureus; details: NCTC 12493, 24 h
# Description: as §5, §6
# The bacteria were inoculated in a different medium (Gram-positive bacteria were in TSB and Gram-negative bacteria were in LB) overnight, and the subculture was conducted in the same medium. When the bacteria reached a specific density, 100 µL of the dilution was added to each well of the 96-well microplates. The plates were put into a moist shaking incubator with a speed of 200 rpm and the temperature was 37 ℃. […] The solutions were transferred to a new microplate, and the absorbance of each well was tested by a microplate reader (EL808, Biolise BioTek Winooski, Minneapolis, USA) at 595 nm wavelength.
# [9] = tested on: wax moth (Galleria mellonella); test: Toxicity of peptides to waxworms; type: in vivo; details: uninfected waxworms, 7.5, 15 and 30 mg/kg, injection
MIC [1] [µM],MIC [2] [µM],MIC [3] [µM],MIC [4] [µM],MIC [6] [µM],MIC [7] [µM],Compound,MBC [1] [µM],MBC [2] [µM],MBC [3] [µM],MBC [4] [µM],MBEC [5] [µM],MBIC [5] [µM],MBC [6] [µM],MBC [7] [µM],MBIC [8] [µM],survival rate of waxworms treated with peptide [9] [%]
>512,256,>512,512,>512,>512,CC[C@H](C)[C@H](NC(=O)[C@@H](NC(=O)CN)C(C)C)C(=O)N[C@H](C(=O)N[C@@H](CCCCN)C(=O)N[C@H](C(=O)N[C@@H](CC(C)C)C(N)=O)[C@@H](C)O)[C@@H](C)CC [Peptide 7-tB2U-K] (H-GVIIKTL-NH2),>512,> 512,>512,> 512,>512,>512,>512,>512,–,–
8,64,256,32,256,64,CC[C@H](C)[C@H](NC(=O)[C@@H](NC(=O)CN)C(C)C)C(=O)N[C@H](C(=O)N[C@@H](CCCCN)C(=O)N[C@@H](CCCCN)C(=O)N[C@@H](CC(C)C)C(=O)N[C@@H](CCCCN)C(=O)NCC(=O)N[C@@H](C)C(=O)N[C@@H](C)C(=O)N[C@@H](CCCCN)C(=O)N[C@@H](CCCCN)C(=O)N[C@H](C(=O)N[C@@H](C)C(=O)N[C@@H](C)C(=O)N[C@@H](CCCCN)C(=O)N[C@@H](CC(C)C)C(=O)N[C@@H](CC(C)C)C(N)=O)C(C)C)[C@@H](C)CC [tB2U-6K] (H-GVIIKKLKGAAKKVAAKLL-NH2),8,128,256,32,> 512,64,256,64,32,100
>512,>512,>512,256,>512,>512,CC[C@H](C)[C@H](NC(=O)[C@@H](NC(=O)CN)C(C)C)C(=O)N[C@H](C(=O)N[C@@H](CCCCN)C(=O)N[C@H](C(=O)N[C@@H](CC(C)C)C(=O)N[C@@H](CCCCN)C(=O)NCC(=O)N[C@@H](C)C(=O)N[C@@H](C)C(=O)N[C@@H](CCCCN)C(=O)N[C@H](C(=O)N[C@H](C(N)=O)C(C)C)[C@@H](C)O)[C@@H](C)O)[C@@H](C)CC [Peptide 14-tB2U-K] (H-GVIIKTLKGAAKTV-NH2),>512,>512,>512,> 512,>512,>512,>512,>512,–,–
>512,>512,>512,>512,>512,>512,CC[C@H](C)[C@H](NC(=O)[C@@H](NC(=O)CN)C(C)C)C(=O)N[C@H](C(=O)N[C@@H](CC(=O)O)C(=O)N[C@H](C(=O)N[C@@H](CC(C)C)C(=O)N[C@@H](CCCCN)C(=O)NCC(=O)N[C@@H](C)C(=O)N[C@@H](C)C(=O)N[C@@H](CCCCN)C(=O)N[C@H](C(=O)N[C@H](C(=O)N[C@@H](C)C(=O)N[C@@H](C)C(=O)N[C@@H](CCC(=O)O)C(=O)N[C@@H](CC(C)C)C(=O)N[C@@H](CC(C)C)C(N)=O)C(C)C)[C@@H](C)O)[C@@H](C)O)[C@@H](C)CC [tB2U-α] (H-GVIIDTLKGAAKTVAAELL-NH2),>512,>512,>512,>512,>512,>512,>512,>512,–,–
16,128,>512,32,64,32,CC[C@H](C)[C@H](NC(=O)[C@@H](NC(=O)CN)C(C)C)C(=O)N[C@H](C(=O)N[C@@H](CCCCN)C(=O)N[C@H](C(=O)N[C@@H](CC(C)C)C(=O)N[C@@H](CCCCN)C(=O)NCC(=O)N[C@@H](C)C(=O)N[C@@H](C)C(=O)N[C@@H](CCCCN)C(=O)N[C@H](C(=O)N[C@H](C(=O)N[C@@H](C)C(=O)N[C@@H](C)C(=O)N[C@@H](CCCCN)C(=O)N[C@@H](CC(C)C)C(=O)N[C@@H](CC(C)C)C(N)=O)C(C)C)[C@@H](C)O)[C@@H](C)O)[C@@H](C)CC [tB2U-K] (H-GVIIKTLKGAAKTVAAKLL-NH2),16,128,>512,32,> 512,32,64,32,16,100
–,>512,>512,256,>512,>512,CC[C@H](C)[C@H](NC(=O)[C@@H](NC(=O)CN)C(C)C)C(=O)N[C@H](C(=O)N[C@@H](CC(=O)O)C(=O)N[C@H](C(=O)N[C@@H](CC(C)C)C(=O)N[C@@H](CCCCN)C(=O)NCC(=O)N[C@@H](C)C(=O)N[C@@H](C)C(=O)N[C@@H](CCCCN)C(=O)N[C@H](C(=O)N[C@H](C(=O)N[C@@H](C)C(=O)N[C@@H](C)C(=O)N[C@@H](CCC(=O)O)C(=O)N[C@@H](CC(C)C)C(=O)N[C@@H](CC(C)C)C(=O)N[C@@H](CCCNC(=N)N)C(=O)N[C@@H](CCCCN)C(=O)N[C@@H](C)C(=O)N[C@@H](Cc1c[nH]cn1)C(N)=O)C(C)C)[C@@H](C)O)[C@@H](C)O)[C@@H](C)CC [tB2U] (H-GVIIDTLKGAAKTVAAELLRKAH-NH2),–,>512,>512,> 512,> 512,256,>512,>512,–,–
